1 compound from PMC9853328, “Potent Platinum(IV) Prodrugs That Incorporate a Biotin Moiety to Selectively Target Cancer Cells” (Pharmaceutics, 2022) can be followed below.

A word on the GI50: it is the concentration giving 50% growth inhibition.

Each structure is given as a SMILES string. Several values for one entry are separate records, joined by “and”; a condition that tells them apart may be missing. Equal entries are not always repeated.

For one data set, the system named is A431 skin cancer cells. Briefly: MTT in vitro cytotoxicity assay, A431. Format: cell-based. As to conditions: 72 h drug exposure, n = 3, read-out: GI50 ± SEM, A431. On the procedure: (§1) The in vitro cytotoxicity assays were undertaken at Calvary Mater Hospital, Waratah, NSW, Australia, following a method previously published in the literature. A stock solution for each compound was prepared in DMSO (30 mM) and stored at −20 °C. The cell lines used in the study include HT29 colon, U87 glioblastoma, MCF-7 breast, A2780 ovarian, H460 lung, A431 skin, Du145 prostate, BE2-C neuroblastoma, SJ-G2 glioblastoma, MIA pancreas, and cisplatin-resistant ADDP ovarian (subclone of A2780) cancer cells, as well as the non-cancerous-derived MCF10A breast cell line. The cancer cell lines were cultured in a humidified atmosphere 5% CO2 at 37 °C and maintained in Dulbecco’s modified Eagle’s medium (Trace Biosciences, Sydney, Australia), supplemented with 10% foetal bovine serum, sodium bicarbonate (10 mM), penicillin (100 IU/mL), streptomycin (100 µg/mL), and glutamine (4 mM). The non-cancerous MCF10A cell line was maintained in DMEM:F12 (1:1) cell culture media, with 5% heat inactivated horse serum, supplemented with penicillin (50 IU/mL), streptomycin (50 µg/mL), glutamine (2 mM), HEPES (20 mM), epidermal growth factor (20 ng/mL), hydrocortisone (500 ng/mL), cholera toxin (100 ng/mL), and insulin (10 µg/mL). Cells were plated in duplicate in medium (100 µL) at a density of 2500–4000 cells per well in 96-well plates. On day 0, (24 h after plating) when the cells were in logarithmic growth, medium (100 μL) with or without the test agent was added to each well. The growth inhibitory effects were evaluated after 72 h drug exposure, using the MTT (3-(4,5-dimethylthiazol-2-yl)-2,5-diphenyltetrazolium bromide) assay, with the absorbance read at 540 nm. An eight-point dose–response curve was produced, which was used to determine the concentration at which growth was inhibited by 50% (GI50). This calculation was based on the difference between the optical density values on day 0 and those at the end of drug exposure. […] Experiments were conducted on three separate occasions and GI50 values were reported as the mean and standard error of the mean.

A further data set has as its system SJ-G2 glioblastoma cells. Briefly: MTT in vitro cytotoxicity assay, SJ-G2. As to conditions: 72 h drug exposure, n = 3, read-out: GI50 ± SEM, SJ-G2. Format: cell-based. As for the experimental part: as §1
Data set [1] concerns MCF10A (healthy breast) cells. Briefly: Cellular platinum uptake by ICP-MS, MCF10A. It counts as cell-based. As to conditions: 1.0 and 0.1 µM, 4 h, among complexes 1–4. On the procedure: (§2) Cellular uptake studies were carried out in MCF-7 (breast cancer) and MCF10A (healthy breast) cell lines. Reported in Table S2 are the numbers of cells per well that were seeded onto 12-well plates for each replicate and cell line. After incubating overnight at 37 °C, the cell culture medium was replaced with fresh media containing the test compounds at concentrations of 1.0 and 0.1 µM. After incubating for 4 h, the medium was removed, the cells were washed with PBS twice, and then incubated with trypsin solution until the cells dissociated from the plate. The harvested cells were then placed into an Eppendorf tube and PBS was added to a volume of 1 mL. Cell numbers were determined using trypan blue staining. Cell pellets were obtained after centrifugation and the cells were dispersed in 50 µL of MilliQ™ water and stored immediately at −20 °C until platinum analysis was conducted. These experiments were repeated in triplicate on three separate occasions.
Sixty-nine percent HNO3 (50 µL) was added to each sample and digested at 80 °C for 1.5 h, before being taken up to 1 mL with H2O. The platinum analysis was conducted using a PerkinElmer (Melbourne, Australia) NexION™ 300X inductively coupled plasma mass spectrometer (ICP-MS). […] The calibration was linear over the working range (R^2 > 0.9999) and the most abundant platinum isotope (m/z = 195) was monitored. […]

The test system of data set [2] is MCF-7 breast cancer cells. Briefly: MTT in vitro cytotoxicity assay, MCF-7. It counts as cell-based. As to conditions: MTT, 72 h drug exposure, n = 3; read-out: GI50 ± SEM, MCF-7.
A short description of data set [3]: Reduction study with ascorbic acid via 1H NMR. It counts as physicochemical. The conditions noted are these: 5 mM complex in D2O with 10X PBS, ascorbic acid 5 mM, 37 °C, four experiments. On the procedure: To confirm that the reduction of these prodrugs occurs and the axially bound biotin ligands are released from the cytotoxic platinum(II) core, reduction studies were undertaken using ^1H NMR experiments for 3. The complex was prepared in 5 mM D2O with 10X PBS. Ascorbic acid (5 mM) was added, and the reduction was monitored at 37 °C by ^1H NMR experiments. Over time, the resonances corresponding to the platinum(IV) species decreased, while new resonances corresponding to the platinum(II) species increased (Figure 7).

Data set [4] relates to MIA pancreas cancer cells. Briefly: MTT in vitro cytotoxicity assay, MIA. Format: cell-based. As to conditions: 72 h drug exposure, n = 3, read-out: GI50 ± SEM, MIA. As for the experimental part:
as §1

The subject of data set [5] is MCF-7 (breast cancer) cells. Briefly: Cellular platinum uptake by ICP-MS, MCF-7. It counts as cell-based. The conditions noted are these: 0.1 µM, 4 h, ICP-MS. On the procedure:
as §2
Sixty-nine percent HNO3 (50 µL) was added to each sample and digested at 80 °C for 1.5 h, before being taken up to 1 mL with H2O. The platinum analysis was conducted using a PerkinElmer (Melbourne, Australia) NexION™ 300X inductively coupled plasma mass spectrometer (ICP-MS). A four-point calibration curve was produced by serial dilution of a certified platinum reference standard. The calibration was linear over the working range (R^2 > 0.9999) and the most abundant platinum isotope (m/z = 195) was monitored. The average values for three independent experiments were reported with standard deviations.

In a further data set the test system is U87 glioblastoma cells. Briefly: MTT in vitro cytotoxicity assay, U87. Format: cell-based. As to conditions: 72 h drug exposure, n = 3, read-out: GI50 ± SEM, U87. On the procedure: as §1

As for `COc1cc[n+]2c3c1ccc1c(OC)cc[n+](c13)[Pt-2]21([OH])([O]C(=O)CCCC[C@@H]2SC[C@@H]3NC(=O)N[C@@H]32)[NH2+][C@H]2CCCC[C@@H]2[NH2+]1.O=[N+]([O-])[O-].O=[N+]([O-])[O-]` [Complex 3, [Pt(4,7-dimethoxy-1,10-phenanthroline)(1S,2S-diaminocyclohexane)(biotin)(hydroxido)](NO3)2], the GI50 in the data set on A431 skin cancer cells turned out to be 820 ± 220 nM; in the data set on SJ-G2 glioblastoma cells it was 570 ± 170 nM; in data set [2] it was 99 ± 41 nM; in data set [4] it was 180 ± 10 nM; in the data set on U87 glioblastoma cells, 320 ± 60 nM. For the same compound, the “cellular platinum uptake in MCF10A (rank)” value in data set [1] is recorded as “lowest uptake levels”. In addition, the reduction half-life in data set [3] was ~ 30 ± 7 min and ~ 30 min. In addition, the “cellular platinum uptake in MCF-7” value in data set [5] was “greatest uptake”. In addition, in data set [5], the “fold greater uptake in MCF-7 compared to MCF10A” value is on record as roughly 3 fold.
